Results: patent US20130345215A1, “PYRAZOLOPYRIMIDONE AND PYRAZOLOPYRIDONE INHIBITORS OF TANKYRASE” (Genentech, Inc., priority 2012, published 2013)

How the values were obtained:
tankyrase 2 (TNKS2) = biological target: T1, tankyrase 2 (TNKS2) (Homo sapiens, UniProt Q9H2K2); assay: μHTS-TNKS-IWR2 TR-FRET Binding Assay (Example 118), His6-TNKS2 substituted; conditions: procedure in Example 118 with His6-TNKS2
T1 construct: His6-tankyrase 2 (construct: 934-1166) (His6-TNKS2)
Protocol: (§1) μHTS-TNKS-IWR2 TR-FRET Binding Assay (10 μL/well in BD1536-well plate, a single point)
(§2) Reagents and Stock Solutions
Tankyrase 1 (TNKS1): 184.3 μM=5.2 mg/mL His6-TNKS1, MW=28.2 KDa (construct: 1088-1327, 1266M) in 20 mM Tris pH 8, 150 mM NaCl, 10% glycerol, and 0.5 mM TCEP. Alternatively, His6-tankyrase 2 (construct: 934-1166) (His6-TNKS2) or His6-PARP1 (full length) can be substituted for His6-TNKS 1.
(§3) Biotin-4-((1S,2R,6S,7R)-3,5-Dioxo-4-aza-tricyclo[5.2.1.0*2,6]dec-8-en-4-yl)-N-(4-methyl-quinolin-8-yl)-benzamide (Biotin-IWR2): 10 mM Biotin-IWR2 stock in DMSO, stored at −20° C.
Positive control: 10 mM 2-(4-Trifluoromethyl-phenyl)-3,5,7,8-tetrahydro-thiopyrano[4,3-d]pyrimidin-4-one (XAV939) in DMSO, stored at −20° C.
APC-anti-His Ab: 8.50 μM SL-APC, 8.26 μM anti-6His antibody-SureLight APC (Columia Bioscience, Catalog Number D3-1711, Lot Number N01010-AAH04)
Assay plate: BD 1536-well, clear/black plate (Catalog Number 353255)
(§4) Assay buffer 1a (AB1a) for TNKS dilution: 50 mM Tris, pH 7.4, 100 mM sodium chloride solution, 1 mM magnesium chloride solution, 1 mM DL-dithiothreitol solution, 0.2 mg/mL bovine serum albumin solution, 0.025% NP-40.
(§5) Assay buffer 1b (AB1b) for Biotin-IWR2 dilution: 50 mM Tris, pH 7.4, 100 mM sodium chloride solution, 1 mM magnesium chloride solution, 1 mM DL-dithiothreitol solution, 0.2 mg/mL bovine serum albumin solution, 0.05% NP-40
(§6) Assay buffer 1c (AB1c) for compound dilution: 50 mM Tris, pH 7.4, 100 mM sodium chloride solution, 1 mM magnesium chloride solution, 1 mM DL-dithiothreitol solution, 0.2 mg/mL bovine serum albumin solution
(§7) Assay buffer 2 (AB2) for Eu/APC: 50 mM Tris, pH 7.4, 100 mM sodium chloride solution, 1 mM magnesium chloride solution, 0.2 mg/mL bovine serum albumin solution
(§8) Reagent Stock Solution Preparation
Prepare Biotinylated IWR2 stock solution (3.33× stock) for TOTL and compound wells: 200 nM Biotin-IWR2 in 5% DMSO/AB1b buffer
(§9) Prepare BLANK well stock solution: 5% DMSO/AB1b buffer
Prepare POSITIVE CONTROL well stock solution (3.33× stock): 200 nM XAV939 in 200 nM Biotin-IWR2/5% DMSO/AB1b buffer
(§10) Prepare TNKS 1 stock solution (5× stock): 300 nM TNKS in AB1a buffer. (Alternatively, use TNKS2 or PARP1 stock solutions.)
Prepare Eu/APC stock solution (5× stock): 3.5 nM Eu-SA/50 nM APC-His6Ab in AB2 buffer.
Add 25 μL/well 1.5% DMSO/AB1c buffer in each compound well to the compound concentration at 74 μM in 8.8% DMSO/AB1c buffer or in the 2 μL DMSO CONTROL wells (BLANK, TOTAL and POSITIVE wells) in the compound plate. Transfer 3 μL/well of above solution (solution 1,2,3) to an empty assay plate (BD1536-well plate) as follows: • TOTAL and cpd wells: Solution 1 (Biotin-IWR2): • BLANK wells: Solution 2 (No Biotin-IWR2): • POSITIVE CONTROL wells: Solution 3 (Biotin-IWR2+XAV939)
(§11) Transfer 3 μL/well of the above diluted compound solutions or compound dilution buffer to the above assay plate. Add 2 μL/well of 300 nM TNKS stock solution (4) to every well in the above assay plate. Centrifuge the assay plate at 2100 rpm for 2 min. Incubate the assay plate at 26° C. for 30 minutes. Add 2 μL/well 3.5 nMEu/50 nM APC solution (5) to every well in the above assay plate. Centrifuge the assay plate at 2100 rpm for 2 min. Incubate the assay plate at 26° C. for 60 min. Read the assay plate immediately at excitation wavelength of 330 nm and emission wavelength of 615 and 665 nM in time resolved fluorescence mode.
XAV939 (+ve control): 60 nM at ˜70% Inhibition
General Library compounds: 22.23 μM in 4% DMSO

Tankyrase 1 (TNKS1) = biological target: T2, Tankyrase 1 (TNKS1) (Homo sapiens, UniProt O95271); assay: μHTS-TNKS-IWR2 TR-FRET Binding Assay (Example 118), His6-TNKS1
T2 construct: His6-TNKS1, MW=28.2 KDa (construct: 1088-1327, 1266M)
T2 sequence (O95271 1088-1327): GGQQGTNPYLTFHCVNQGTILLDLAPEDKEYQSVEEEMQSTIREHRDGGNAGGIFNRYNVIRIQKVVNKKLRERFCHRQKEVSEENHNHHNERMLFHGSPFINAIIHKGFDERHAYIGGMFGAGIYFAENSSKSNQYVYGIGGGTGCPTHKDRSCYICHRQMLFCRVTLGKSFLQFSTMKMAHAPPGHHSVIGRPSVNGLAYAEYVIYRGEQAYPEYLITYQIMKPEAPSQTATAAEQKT
Protocol: as §1, §2, §3
(XAV939) in DMSO, stored at −20° C.
as §4, §5, §6, §7, §8, §9, §10
Transfer 3 μL/well of above solution (solution 1,2,3) to an empty assay plate (BD1536-well plate) as follows: • TOTAL and cpd wells: Solution 1 (Biotin-IWR2): • BLANK wells: Solution 2 (No Biotin-IWR2): • POSITIVE CONTROL wells: Solution 3 (Biotin-IWR2+XAV939)
as §11, with “min.” for “min. Read the assay plate immediately at excitation wavelength of 330 nm and emission wavelength of 615 and 665 nM in time resolved fluorescence mode.”

T1 sequence (Q9H2K2 934-1166): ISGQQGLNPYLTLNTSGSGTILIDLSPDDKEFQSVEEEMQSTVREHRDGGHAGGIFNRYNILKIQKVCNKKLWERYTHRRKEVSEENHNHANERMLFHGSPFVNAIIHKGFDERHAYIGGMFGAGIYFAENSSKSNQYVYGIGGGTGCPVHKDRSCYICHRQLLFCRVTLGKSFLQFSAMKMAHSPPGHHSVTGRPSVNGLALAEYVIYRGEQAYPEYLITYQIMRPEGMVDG

IC50 (tankyrase 2 (TNKS2)) [nM] | IC50 (Tankyrase 1 (TNKS1)) [nM] | Compound
178 | 165 | Cn1ncc2c(=O)[nH]c(N3CCN(C4CCCC4)CC3)nc21 [Compound I-37, 6-(4-cyclopentylpiperazin-1-yl)-1-methyl-5H-pyrazolo[3 4-d]pyrimidin-4-one]
228 | 150 | Cn1ncc2c(=O)[nH]c(N3CCN(c4ncccc4C#N)CC3)nc21 [Compound I-18, 2-[4-(1-methyl-4-oxo-5H-pyrazolo[3 4-d]pyrimidin-6-yl)piperazin-1-yl]pyridine-3-carbonitrile]
55.3 | 47 | COc1cccnc1N1CCN(c2nc3c(cnn3C)c(=O)[nH]2)CC1 [Compound I-43, 6-[4-(3-methoxy-2-pyridyl)piperazin-1-yl]-1-methyl-5H-pyrazolo[3 4-d]pyrimidin-4-one]
178 | 155 | Cn1ncc2c(=O)[nH]c(N3CCN(CC4CCCO4)CC3)nc21 (stereo not shown) [Compound I-32, 1-methyl-6-[4-(tetrahydrofuran-2-ylmethyl)piperazin-1-yl]-5H-pyrazolo[3 4-d]pyrimidin-4-one]
55 | 44 | Cn1ncc2c(=O)[nH]c(N3CCN(c4ccc(F)cc4S(C)(=O)=O)CC3)nc21 [Compound I-22, 6-[4-(4-fluoro-2-methylsulfonyl-phenyl)piperazin-1-yl]-1-methyl-5H-pyrazolo[3 4-d]pyrimidin-4-one]
47.4 | 48 | Cn1ncc2c(=O)[nH]c(N3CCN(c4ccc(F)cc4F)CC3)cc21 [Compound I-16, 6-[4-(2 4-difluorophenyl)piperazin-1-yl]-1-methyl-5H-pyrazolo[4 3-c]pyridin-4-one]
104 | 151 | Cn1ncc2c(=O)[nH]c(-c3ccc(C(F)(F)F)nc3)cc21 [Compound I-29, 1-methyl-6-[6-(trifluoromethyl)-3-pyridyl]-5H-pyrazolo[4 3-c]pyridin-4-one]
32.6 | 34 | Cn1ncc2c(=O)[nH]c(N3CCN(c4c(F)cc([N+](=O)[O-])cc4F)CC3)nc21 [Compound I-49, 6-[4-(2 6-difluoro-4-nitro-phenyl)piperazin-1-yl]-1-methyl-5H-pyrazolo[3 4-d]pyrimidin-4-one]
63.2 | 55 | Cn1ncc2c(=O)[nH]c(N3CCN(c4c(F)cc(C#N)cc4F)CC3)nc21 [Compound I-56, 3 5-difluoro-4-[4-(1-methyl-4-oxo-5H-pyrazolo[3 4-d]pyrimidin-6-yl)piperazin-1-yl]benzonitrile]
32.5 | 32 | Cn1ncc2c(=O)[nH]c(-c3ccc(C(F)(F)F)cc3)cc21 [Compound I-13, 1-methyl-6-[4-(trifluoromethyl)phenyl]-5H-pyrazolo[4 3-c]pyridin-4-one]
68.3 | 66 | Cn1ncc2c(=O)[nH]c(N3CCC(c4ccc(C(F)(F)F)cc4)CC3)nc21 [Compound I-6, 1-methyl-6-[4-[4-(trifluoromethyl)phenyl]-1-piperidyl]-5H-pyrazolo[3 4-d]pyrimidin-4-one]
598 | 504 | Cn1ncc2c(=O)[nH]c(N3CCN(c4nccs4)CC3)nc21 [Compound I-38, 1-methyl-6-(4-thiazol-2-ylpiperazin-1-yl)-5H-pyrazolo[3 4-d]pyrimidin-4-one]
24.4 | 7.6 | COCCOc1cc(F)c(N2CCN(c3nc4c(cnn4C)c(=O)[nH]3)CC2)c(F)c1 [Compound I-1, 6-[4-[2 6-difluoro-4-(2-methoxyethoxy)phenyl]piperazin-1-yl]-1-methyl-5H-pyrazolo[3 4-d]pyrimidin-4-one]
32.6 | 27 | Cn1ncc2c(=O)[nH]c(N3CCN(c4ccccc4C(F)(F)F)CC3)nc21 [Compound I-19, 1-methyl-6-[4-[2-(trifluoromethyl)phenyl]piperazin-1-yl]-5H-pyrazolo[3 4-d]pyrimidin-4-one]
